US10125126B2, “N-cycloalkyl-N-[(heterocyclylphenyl)methylene]-(thio)carboxamide derivatives” (BAYER CROPSCIENCE AG, priority 2012, dated 2018)

How the values were obtained:
[1] = test system: Blumeria graminis f.sp. hordei; test: In vivo preventive test on Blumeria graminis (barley); conditions: 500 ppm of active ingredient, evaluated 7 days after inoculation
Method: In Vivo Preventive Test on Blumeria graminis (Barley) [table] To produce a suitable preparation of active compound, 1 part by weight of active compound or active compound combination is mixed with the stated amounts of solvent and emulsifier, and the concentrate is diluted with water to the desired concentration. To test for preventive activity, young plants are sprayed with the preparation of active compound or active compound combination at the stated rate of application. After the spray coating has been dried, the plants are dusted with spores of Blumeria graminis f.sp. hordei.

Alternaria brassicae = test: In vivo preventive test on Alternaria brassicae (leaf spot on radish); conditions: 500 ppm of active ingredient; radish plants; 6 days after contamination
How it was run: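 Radish plants at cotyledon stage were sprayed with compound; controls got the acetone/tween/DMSO/water mix alone. After 24 h they were inoculated with Alternaria brassicae spores (50 000 spores per mL) and kept at 20 °C, 100% relative humidity. % efficacy versus controls was graded 6 days post-inoculation.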

Botrytis cinerea = test: In vivo preventive test on Botrytis cinerea (grey mould); conditions: 500 ppm of active ingredient; gherkin plants; 4 to 5 days after contamination
How it was run: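 Gherkin plants at cotyledon stage Z11 were sprayed with compound, then inoculated 24 h later with Botrytis cinerea spores (50 000 spores per mL in nutrient solution). Plants were kept at 17° C and 90% RH, and percent efficacy versus solvent-treated controls was graded 4 to 5 days after contamination.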

Pyrenophora teres = test: In vivo preventive test on Pyrenophora teres (barley); conditions: 500 ppm of active ingredient; barley plants; 14 days after contamination
How it was run: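 Barley ("Plaisant") grown at 22° C was sprayed at the 1-leaf stage (10 cm) with active ingredient in acetone/tween/DMSO/water, with solvent-only controls. After 24 h, leaves were inoculated with Pyrenophora teres spores (12 000 spores per mL) from 12-day cultures. % efficacy versus controls graded 14 days post-contamination.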

Septoria tritici = test: In vivo preventive test on Septoria tritici (wheat); conditions: 500 ppm of active ingredient; wheat plants; 24 days after contamination
How it was run: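 Scipion wheat grown at 22° C, sprayed at 1-leaf stage (10 cm); controls received acetone/tween/DMSO/water without active. Inoculated 24 h later with S. tritici spores (500 000/mL), held 72 h at 18° C, 100% RH, then 21 days at 90% RH. % efficacy vs controls scored 24 days post-inoculation.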

Sphaerotheca fuliginea = test: In vivo preventive test on Sphaerotheca fuliginea (powdery mildew on cucurbits); conditions: Podosphaera fuliginea, 288 h, 500 ppm of active ingredient; gherkin plants; 12 days after contamination; read-out: Efficacy
How it was run: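 Gherkin plants ("Vert petit de Paris") grown at 24 °C were sprayed at cotyledon stage Z11; controls received acetone/tween/DMSO/water without active. Inoculation 24 h later by spraying cotyledons with 100 000 spores/mL. Efficacy (%) graded 12 days post-contamination versus controls.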

Uromyces appendiculatus = test: In vivo preventive test on Uromyces appendiculatus (bean rust); conditions: 500 ppm of active ingredient; bean plants; 11 days after contamination
How it was run: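 Saxa bean plants at 2-leaf stage, grown at 24° C., sprayed preventively with compound; 24 h later inoculated with U. appendiculatus spores (150 000 spores per mL). Percent efficacy graded 11 days after inoculation versus solvent-treated controls.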

Venturia inaequalis = test: In vivo preventive test on Venturia inaequalis (apples); conditions: 100 ppm of active ingredient, evaluated 10 days after inoculation
Method: In Vivo Preventive Test on Venturia inaequalis (apples) [table] To produce a suitable preparation of active compound, 1 part by weight of active compound is mixed with the stated amounts of solvent and emulsifier, and the concentrate is diluted with water to the desired concentration. To test for preventive activity, young plants are sprayed with the preparation of active compound at the stated rate of application. After the spray coating has dried on, the plants are inoculated with an aqueous conidia suspension of the causal agent of apple scab (Venturia inaequalis) and then remain for 1 day in an incubation cabinet at approximately 20° C. and a relative atmospheric humidity of 100%. The plants are then placed in a greenhouse at approximately 21° C. and a relative atmospheric humidity of approximately 90%.

CC(C)c1ccc(-c2csc3ccccc23)cc1CN(C(=O)c1c(C(F)F)nn(C)c1F)C1CC1 [I.157, N-[5-(1-benzothiophen-3-yl)-2-isopropylbenzyl]-N-cyclopropyl-3-(difluoromethyl)-5-fluoro-1-methyl-1H-pyrazole-4-carboxamide]
Efficacy [1]: 100%
Efficacy (Alternaria brassicae): 100%
Efficacy (Botrytis cinerea): 100%
Efficacy (Pyrenophora teres): 93%
Efficacy (Septoria tritici): 90%
pest or weed control at 500 ppm (Sphaerotheca fuliginea): 100%
Efficacy (Uromyces appendiculatus): 100%
Efficacy (Venturia inaequalis): 100%
